{"source": "patent US9468661B2", "about": "“Pyrrolidine derivatives and their use as complement pathway modulators” (priority 2012, dated 2016)", "data": [{"target": "human factor D (Homo sapiens (Human), UniProt P00746)", "sequence (P00746 26-253)": "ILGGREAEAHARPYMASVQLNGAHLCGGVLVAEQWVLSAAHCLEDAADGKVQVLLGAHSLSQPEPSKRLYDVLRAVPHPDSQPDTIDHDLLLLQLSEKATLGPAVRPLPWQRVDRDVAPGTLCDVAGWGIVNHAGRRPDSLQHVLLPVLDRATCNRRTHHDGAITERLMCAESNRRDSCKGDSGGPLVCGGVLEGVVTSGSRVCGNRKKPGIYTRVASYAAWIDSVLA", "assay": "biochemical", "type": "biochemical", "details": "Factor D inhibition data using Method 1; recombinant human factor D 10 nM, substrate Z-Lys-thiobenzyl, fluorescence; read-out: IC50", "protocol": "(§1) Human Complement Factor D Assay: Method 1\n(§2) Recombinant human factor D (expressed in E. coli and purified using standard methods) at 10 nM concentration is incubated with test compound at various concentrations for 1 hour at room temperature in 0.1 M Hepes buffer, pH 7.5, containing 1 mM MgCl2, 1 M NaCl and 0.05% CHAPS. A synthetic substrate Z-Lys-thiobenzyl and 2,4-dinitrobenzenesulfonyl-fluoresceine are added to final concentrations of 200 μM and 25 μM, respectively. The increase in fluorescence is recorded at excitation of 485 nm and emission at 535 nm in a microplate spectrofluorimeter. IC50 values are calculated from percentage of inhibition of complement factor D-activity as a function of test compound concentration.", "units": {"IC50": "nM"}, "values": [{"compound": "CC1(C)[C@H](CNC(=O)[C@@H]2C[C@H]3C[C@H]3N2C(=O)Cn2nc(C(N)=O)c3ccccc32)C1(Cl)Cl", "note": "[Example 107, 1-(2-{(1R,3S,5R)-3-[((R)-2,2-Dichloro-3,3-dimethyl-cyclopropylmethyl)-carbamoyl]-2-aza-bicyclo[3.1.0]hex-2-yl}-2-oxo-ethyl)-1H-indazole-3-carboxylic acid amide]", "IC50": 52}, {"compound": "CC(=O)c1nn(CC(=O)N2[C@@H]3C[C@@H]3C[C@H]2C(=O)NCC2CC(C)C2)c2cnccc12", "note": "(stereo partly drawn) [Example 7, (1R,3S,5R)-2-[2-(3-Acetyl-pyrazolo[3,4-c]pyridin-1-yl)-acetyl]-2-aza-bicyclo[3.1.0] hexane-3-carboxylic acid (3-methyl-cyclobutylmethyl)-amide]", "IC50": 259}, {"compound": "CC(=O)c1nn(CC(=O)N2[C@@H]3C[C@@H]3C[C@H]2C(=O)NC[C@H]2CC2(Cl)Cl)c2ncccc12", "note": "[Example 69, (1R,3S,5R)-2-[2-(3-Acetyl-pyrazolo[3,4-b]pyridin-1-yl)-acetyl]-2-aza-bicyclo[3.1.0] hexane-3-carboxylic acid ((R)-2,2-dichloro-cyclopropylmethyl)-amide]", "IC50": 53}, {"compound": "CC1CCCC1CNC(=O)[C@@H]1C[C@H]2C[C@H]2N1C(=O)Cn1nc(C(N)=O)c2ccncc21", "note": "(single isomer, unassigned; dia 1) [Example 85]", "IC50": 1410}, {"compound": "NC(=O)n1cc(NC(=O)N2[C@@H]3C[C@@H]3C[C@H]2C(=O)NCC2CC=CCC2)c2ccccc21", "note": "(stereo partly drawn) [Example 26, (1R,3S,5R)-2-Aza-bicyclo[3.1.0]hexane-2,3-dicarboxylic acid 2-[(1-carbamoyl-1H-indol-3-yl)-amide] 3-[(cyclohex-3-enylmethyl)-amide]]", "IC50": 305}, {"compound": "CC(=O)c1nn(CC(=O)N2[C@@H]3C[C@@H]3C[C@H]2C(=O)NCC2CCCC(C)C2)c2cnccc12", "note": "(single isomer, unassigned; dia 1) [Example 119]", "IC50": 188}, {"compound": "Cc1cc2c(C(N)=O)nn(CC(=O)N3[C@@H]4C[C@@H]4C[C@H]3C(=O)N[C@H](C)[C@H]3CC3(Cl)Cl)c2cn1", "note": "[Example 38, 1-(2-{(1R,3S,5R)-3-[(R)-1-((R)-2,2-Dichloro-cyclopropyl)-ethylcarbamoyl]-2-aza-bicyclo[3.1.0]hex-2-yl}-2-oxo-ethyl)-5-methyl-1H-pyrazolo[3,4-c] pyridine-3-carboxylic acid amide]", "IC50": 40}, {"compound": "NC(=O)c1nn(CC(=O)N2[C@@H]3C[C@@H]3C[C@H]2C(=O)N[C@H](CO)C23CC(C(F)(F)F)(C2)C3)c2ccccc12", "note": "[Example 123, 1-(2-{(1R,3S,5R)-3-[(S)-2-Hydroxy-1-(3-trifluoromethyl-bicyclo[1.1.1]pent-1-yl)-ethylcarbamoyl]-2-aza-bicyclo[3.1.0]hex-2-yl}-2-oxo-ethyl)-1H-indazole-3-carboxylic acid amide]", "IC50": 1240}, {"compound": "CC(=O)c1nn(CC(=O)N2[C@@H]3C[C@@H]3C[C@H]2C(=O)NCC2(C)CC2(Cl)Cl)c2cnccc12", "note": "(stereo partly drawn) [Example 13, (1R,3S,5R)-2-[2-(3-Acetyl-pyrazolo[3,4-c]pyridin-1-yl)-acetyl]-2-aza-bicyclo[3.1.0] hexane-3-carboxylic acid (2,2-dichloro-1-methyl-cyclopropylmethyl)-amide]", "IC50": 958}, {"compound": "CC(=O)c1nn(CC(=O)N2[C@@H]3C[C@@H]3C[C@H]2C(=O)NCC2CCCC(C)(C)C2)c2cnccc12", "note": "(single isomer, unassigned; dia 1) [Example 17]", "IC50": 661}, {"compound": "CC(=O)c1nn(CC(=O)N2[C@@H]3C[C@@H]3C[C@H]2C(=O)NCC2CCCC2(C)C)c2cnccc12", "note": "(single isomer, unassigned; dia 1) [Example 19]", "IC50": 1610}, {"compound": "CC1CCCC(CNC(=O)[C@@H]2C[C@H]3C[C@H]3N2C(=O)Cn2nc(C(N)=O)c3ccncc32)C1", "note": "(single isomer, unassigned; dia 2) [Example 116]", "IC50": 445}, {"compound": "CC(=O)c1nn(CC(=O)N2[C@@H]3C[C@@H]3C[C@H]2C(=O)N[C@H](C)[C@H]2CC2(Cl)Cl)c2ccc(OCc3ncn(C)n3)cc12", "note": "[Example 61, (1R,3S,5R)-2-{2-[3-Acetyl-5-(1-methyl-1H-[1,2,4]triazol-3-ylmethoxy)-indazol-1-yl]-acetyl}-2-aza-bicyclo[3.1.0]hexane-3-carboxylic acid [(R)-1-((R)-2,2-dichloro-cyclopropyl)-ethyl]-amide]", "IC50": 3}, {"compound": "CO[C@H]1[C@@H](C(=O)NC[C@H]2CC2(Cl)Cl)N(C(=O)Cn2nc(C(N)=O)c3ccccc32)C[C@@H]1F", "note": "[Example 42, 1-(2-{(2S,3S,4S)-2-[((R)-2,2-Dichloro-cyclopropylmethyl)-carbamoyl]-4-fluoro-3-methoxy-pyrrolidin-1-yl}-2-oxo-ethyl)-1H-indazole-3-carboxylic acid amide]", "IC50": 112}, {"compound": "CC1CCCC(CNC(=O)[C@@H]2C[C@H]3C[C@H]3N2C(=O)Nc2cn(C(N)=O)c3ccccc23)C1", "note": "(stereo partly drawn) [Example 29, (1R,3S,5R)-2-Aza-bicyclo [3.1.0]hexane-2,3-dicarboxylic acid 2-[(1-carbamoyl-1H-indol-3-yl)-amide] 3-[(3-methyl-cyclohexylmethyl)-amide]]", "IC50": 46}]}, {"target": "human factor D (Homo sapiens (Human), UniProt P00746)", "assay": "biochemical", "type": "biochemical", "details": "IC50, Factor D inhibition data using Method 1; recombinant human factor D 10 nM, substrate Z-Lys-thiobenzyl, fluorescence", "protocol": "as §1, §2", "units": {"IC50": "nM"}, "values": [{"compound": "NC(=O)c1nn(CC(=O)N2[C@@H]3C[C@@H]3C[C@H]2C(=O)NC(CO)C2CC2(Cl)Cl)c2ccccc12", "note": "(single isomer, unassigned; dia 2) [Example 24]", "IC50": 755}, {"compound": "CC1C(CNC(=O)[C@@H]2C[C@H]3C[C@H]3N2C(=O)Cn2nc(C(N)=O)c3ccncc32)C1(Cl)Cl", "note": "(single isomer, unassigned; dia 1) [Example 81, 1-(2-{(1R,3S,5R)-3-[((1R,3R) or (1S,3R)-2,2-Dichloro-3-methyl-cyclopropylmethyl)-carbamoyl]-2-aza-bicyclo[3.1.0]hex-2-yI}-2-oxo-ethyl)-1H-pyrazolo[3,4-c]pyridine-3-carboxylic acid amide-Dia 1]", "IC50": 21}, {"compound": "CC(=O)c1nn(CC(=O)N2[C@@H]3C[C@@H]3C[C@H]2C(=O)NC(C)C2CC2(Cl)Cl)c2ccc(OCc3ncccn3)cc12", "note": "(single isomer, unassigned; dia 2) [Example 33]", "IC50": 300}, {"compound": "CC1C(CNC(=O)[C@@H]2C[C@H]3C[C@H]3N2C(=O)Cn2nc(C(N)=O)c3ccncc32)C1(Cl)Cl", "note": "(single isomer, unassigned; dia 1) [Example 79, 1-(2-{(1R,3S,5R)-3-[((1R,3S) or (1S,3R)-2,2-Dichloro-3-methyl-cyclopropylmethyl)-carbamoyl]-2-aza-bicyclo[3.1.0]hex-2-yl}-2-oxo-ethyl)-1H-pyrazolo[3,4-c]pyridine-3-carboxylic acid amide-Dia 1]", "IC50": 229}, {"compound": "CC1C(CNC(=O)[C@@H]2C[C@H]3C[C@H]3N2C(=O)Cn2nc(C(N)=O)c3ccccc32)C1(Cl)Cl", "note": "(single isomer, unassigned; dia 1) [Example 73, 1-(2-{(1R,3S,5R)-3-[((1R,3R) or (1S,3S)-2,2-Dichloro-3-methyl-cyclopropylmethyl)-carbamoyl]-2-aza-bicyclo[3.1.0]hex-2-yl}-2-oxo-ethyl)-1H-indazole-3-carboxylic acid amide-Dia 1]", "IC50": 100}, {"compound": "CC(=O)c1nn(CC(=O)N2[C@@H]3C[C@@H]3C[C@H]2C(=O)NCC2C(C)C2(Cl)Cl)c2ccc(OCc3ncccn3)cc12", "note": "(single isomer, unassigned; dia 1) [Example 108, (1R,3S,5R)-2-{2-[3-Acetyl-5-(pyrimidin-2-ylmethoxy)-indazol-1-yl]-acetyl}-2-aza-bicyclo[3.1.0] hexane-3-carboxylic acid ((1R,3S) or (1S,3R)-2,2-dichloro-3-methyl-cyclopropylmethyl)-amide-Dia 1]", "IC50": 27}]}]}
